Patent US6951889B2, “2-amino-2-alkyl-5 heptenoic and heptynoic acid derivatives useful as nitric oxide synthase inhibitors” (Pharmacia Corporation, priority 2000, dated 2005)

Key:
[1] = test system: LPS-induced increase in plasma nitrite/nitrate levels; test: In vivo assay in endotoxin-treated rats; details: Rattus norvegicus, po, administered orally 0.5-1 hours prior to LPS, plasma nitrite/nitrate 5 hours following LPS, read-out: ED50 for inhibition of the LPS-induced increase in plasma nitrite/nitrate levels
Experimental: Compounds are administered orally 0.5-1 hours prior to LPS administration and plasma nitrite/nitrate levels are determined 5 hours following LPS administration.

[2] = test system: nitrite production in human cartilage explants induced with recombinant human IL-1β; test: Human cartilage explant assay; type: cell-based; details: six concentrations of inhibitor, read-out: IC50 inhibition of nitrite production
Experimental: Bone pieces are rinsed twice with Dulbecco's Phosphate Buffered Saline (GibcoBRL) and once with Dulbecco's Modified Eagles Medium (GibcoBRL) and placed into a petri dish with phenol red free Minimum Essential Medium (MEM) (GibcoBRL). Cartilage was cut into small explants of approximately 15-45 mg in weight and one or two explants per well are placed into either 96 or 48 well culture plates with 200-500 μL of culture media per well. The culture media was either a custom modification of Minimum Essential Medium(Eagle) with Earle's salts (GibcoBRL) prepared without L-Arginine, without L-Glutamine and without phenol red or a custom modification of serumless Neuman and Tytell (GibcoBRL) medium prepared without L-arginine, without insulin, without ascorbic acid, without L-glutamine and without phenol red. […]
The day old supernatant is then discarded and replaced with fresh culture media containing recombinant human IL-1β and compound and incubated for another 20-24 hours. This supernatant is analyzed for nitrite with a fluorometric assay (Misko et al, Anal. Biochem., 214, 11-16, 1993). […] IC50 values (Table III) are determined from plotting the percent inhibition of nitrite production at six different concentrations of inhibitor.

SMILES | ED50 [1] [mg/kg] | IC50 [2] [nM]
CC(=N)NC/C(F)=C\CC[C@](C)(N)C(=O)O.Cl.Cl [Example 1, (2S,5E)-2-amino-2-methyl-6-fluoro-7-[(1-iminoethyl)amino]-5-heptenoic acid, Dihydrochloride] | 0.4 | 400
CC(=N)NC/C=C\CC[C@](C)(N)C(=O)O.Cl.Cl [Example 14, (2S,5Z)-2-amino-2-methyl-7-[(1-iminoethyl)amino]-5-heptenoic acid, Dihydrochloride] | 0.3 | 800
